# Laboratory results: article PMC8050276, “Estradiol analogs attenuate autophagy, cell migration and invasion by direct and selective inhibition of TRPML1, independent of estrogen receptors” (Scientific Reports, 2021)
# pIC50: −log10 of the molar value. Entries after “also recorded” stand apart in the source; their conditions may differ. Where two headings read alike, the source gives them in different places.
# Columns and labels:
# hTRPML1∆NC-YFP [1] = target: hTRPML1∆NC-YFP (Homo sapiens, UniProt Q9GZU1); assay type: cell-based
# hTRPML1∆NC-YFP (Homo sapiens, UniProt Q9GZU1), sequence (Q9GZU1 whole entry): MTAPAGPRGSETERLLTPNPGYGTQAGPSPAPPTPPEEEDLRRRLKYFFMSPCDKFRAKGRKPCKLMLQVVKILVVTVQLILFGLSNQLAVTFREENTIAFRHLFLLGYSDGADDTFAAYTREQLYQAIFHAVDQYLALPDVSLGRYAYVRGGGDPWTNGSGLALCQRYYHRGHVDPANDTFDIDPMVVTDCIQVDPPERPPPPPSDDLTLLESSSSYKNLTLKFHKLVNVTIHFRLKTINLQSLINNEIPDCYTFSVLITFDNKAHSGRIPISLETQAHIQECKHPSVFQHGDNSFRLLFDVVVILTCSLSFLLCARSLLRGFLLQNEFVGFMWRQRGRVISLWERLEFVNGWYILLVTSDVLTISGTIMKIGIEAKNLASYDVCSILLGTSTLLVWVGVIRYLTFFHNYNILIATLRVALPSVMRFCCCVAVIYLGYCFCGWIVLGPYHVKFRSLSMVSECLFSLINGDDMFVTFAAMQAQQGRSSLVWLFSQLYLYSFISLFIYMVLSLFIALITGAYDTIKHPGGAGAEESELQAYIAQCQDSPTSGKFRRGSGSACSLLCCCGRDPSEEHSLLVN
# Method: (§1) To identify inhibitors of TRPML1 and TRPML3, the Spectrum Collection compound library (MS Discoveries; 2000 compounds) and additional 430 bioactive compounds were screened. To this end, fluorometric Ca^2+ influx assays were performed by using the calcium dye Fluo-4/AM (Invitrogen, Thermo Fisher Scientific, Waltham, MA, USA) and a custom-made fluorescence imaging plate reader built into a robotic liquid handling station (Freedom Evo 150, Tecan, Männedorf, Switzerland). […] Screening compounds dissolved in DMSO (10 mM) were prediluted in 150 mM NaCl, 20 mM HEPES, pH 7.4, to a concentration of 200 µM. For primary screens, HEK293 stably expressing plasma membrane-targeted TRPML1 or TRPML3 were trypsinized and resuspended in cell culture medium supplemented with 4 µM Fluo-4/AM. After incubation at 37 °C for 30 min, the cell suspension was briefly centrifuged resuspended in HBS, and dispensed into black pigmented, clear-bottom 384-well microwell plates (Greiner μClear, Frickenhausen, Germany). Plates were placed into the FLIPR and fluorescence signals (excitation 470 nm, emission 515 nm) were recorded with a Zyla 5.5 camera (Andor, Belfast, UK) and the μManager software like previously described. In a first video, compound libraries were successively added to the cells with the Tecan 96-tip multichannel arm to a final concentration of 20 µM to map unspecific effects like autofluorescence or toxicity. In a second step the agonist ML-SA1 was pipetted in each well and fluorescence signals were recorded for 10 min. Analyses were done by calculating fluorescence intensities for each well and background areas with ImageJ (National Institutes of Health, Bethesda, MD, USA). Finally, the background was subtracted and the fluorescence intensities were normalized to initial intensities (F/F0). Concentration response curves were generated by the same procedure but compounds were manually prediluted in 96-well plates containing HBS, now supplemented with 0.1% bovine serum albumin. Here data was fitted to a four-parameter Hill equation to obtain Imin, Imax, IC50), and the Hill coefficient n.
# hTRPML1∆NC-YFP [2] = assay type: cell-based, human; settings: for TRPML isoform selectivity profile: TRPML1, 2, 3 and TPC2, Fluo-4; for TRPML1:TRPML2 fold selectivity / TRPML1:TRPML3 fold selectivity: ratio of Fluo-4 IC50 values
# Method: as §1
# hTRPML2-YFP = target: T1, hTRPML2-YFP (Homo sapiens, UniProt Q8IZK6); experiment: Fluo-4 Ca2+ influx assay, HEK293 stably expressing hTRPML2-YFP, activated with ML-SA1; assay type: cell-based
# T1 construct: expressed in transfected cells
# T1 sequence (Q8IZK6 1-566): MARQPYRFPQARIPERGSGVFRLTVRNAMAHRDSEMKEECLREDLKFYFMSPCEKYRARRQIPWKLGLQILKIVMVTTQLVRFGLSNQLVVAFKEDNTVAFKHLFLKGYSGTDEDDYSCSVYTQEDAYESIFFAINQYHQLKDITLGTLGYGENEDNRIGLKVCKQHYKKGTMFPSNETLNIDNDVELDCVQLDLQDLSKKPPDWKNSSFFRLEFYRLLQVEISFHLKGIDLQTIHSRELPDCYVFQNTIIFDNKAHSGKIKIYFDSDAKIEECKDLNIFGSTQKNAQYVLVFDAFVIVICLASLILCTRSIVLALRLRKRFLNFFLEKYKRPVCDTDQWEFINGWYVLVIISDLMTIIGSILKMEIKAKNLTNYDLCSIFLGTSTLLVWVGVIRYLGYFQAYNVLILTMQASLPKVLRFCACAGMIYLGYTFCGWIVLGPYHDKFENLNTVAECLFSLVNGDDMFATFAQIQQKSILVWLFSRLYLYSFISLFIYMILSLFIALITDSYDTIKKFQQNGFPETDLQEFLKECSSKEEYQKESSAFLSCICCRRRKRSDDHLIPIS
# hTRPML3-YFP = target: T2, hTRPML3-YFP (Homo sapiens, UniProt Q8TDD5); experiment: Fluo-4 Ca2+ influx assay, HEK293 stably expressing hTRPML3-YFP, activated with ML-SA1; assay type: cell-based
# T2 construct: expressed in transfected cells
# T2 sequence (Q8TDD5 whole entry): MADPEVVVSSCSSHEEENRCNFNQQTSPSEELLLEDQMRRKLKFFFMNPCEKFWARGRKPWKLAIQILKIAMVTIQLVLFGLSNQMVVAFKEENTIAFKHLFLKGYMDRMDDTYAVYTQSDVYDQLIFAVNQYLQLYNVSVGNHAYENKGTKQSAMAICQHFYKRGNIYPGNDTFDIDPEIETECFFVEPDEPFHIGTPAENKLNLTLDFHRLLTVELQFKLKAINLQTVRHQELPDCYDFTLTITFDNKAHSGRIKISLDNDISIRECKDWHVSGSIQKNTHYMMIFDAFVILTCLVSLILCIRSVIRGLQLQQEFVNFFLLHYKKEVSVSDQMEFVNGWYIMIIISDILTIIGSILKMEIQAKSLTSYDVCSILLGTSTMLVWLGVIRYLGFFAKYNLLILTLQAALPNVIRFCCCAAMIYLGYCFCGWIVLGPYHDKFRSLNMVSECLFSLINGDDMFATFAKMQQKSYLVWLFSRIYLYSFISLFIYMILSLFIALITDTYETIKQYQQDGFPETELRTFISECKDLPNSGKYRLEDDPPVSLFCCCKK
# Method: To identify inhibitors of TRPML1 and TRPML3, the Spectrum Collection compound library (MS Discoveries; 2000 compounds) and additional 430 bioactive compounds were screened. To this end, fluorometric Ca^2+ influx assays were performed by using the calcium dye Fluo-4/AM (Invitrogen, Thermo Fisher Scientific, Waltham, MA, USA) and a custom-made fluorescence imaging plate reader built into a robotic liquid handling station (Freedom Evo 150, Tecan, Männedorf, Switzerland). All measurements were done in a HEPES buffered solution (HBS), containing 132 mM NaCl, 6 mM KCl, 1 mM MgCl2, 1 mM CaCl2, 5.5 mM D-glucose, 10 mM HEPES, pH 7.4. Screening compounds dissolved in DMSO (10 mM) were prediluted in 150 mM NaCl, 20 mM HEPES, pH 7.4, to a concentration of 200 µM. For primary screens, HEK293 stably expressing plasma membrane-targeted TRPML1 or TRPML3 were trypsinized and resuspended in cell culture medium supplemented with 4 µM Fluo-4/AM. After incubation at 37 °C for 30 min, the cell suspension was briefly centrifuged resuspended in HBS, and dispensed into black pigmented, clear-bottom 384-well microwell plates (Greiner μClear, Frickenhausen, Germany). Plates were placed into the FLIPR and fluorescence signals (excitation 470 nm, emission 515 nm) were recorded with a Zyla 5.5 camera (Andor, Belfast, UK) and the μManager software like previously described. In a first video, compound libraries were successively added to the cells with the Tecan 96-tip multichannel arm to a final concentration of 20 µM to map unspecific effects like autofluorescence or toxicity. In a second step the agonist ML-SA1 was pipetted in each well and fluorescence signals were recorded for 10 min. Analyses were done by calculating fluorescence intensities for each well and background areas with ImageJ (National Institutes of Health, Bethesda, MD, USA). Finally, the background was subtracted and the fluorescence intensities were normalized to initial intensities (F/F0). Concentration response curves were generated by the same procedure but compounds were manually prediluted in 96-well plates containing HBS, now supplemented with 0.1% bovine serum albumin. Here data was fitted to a four-parameter Hill equation to obtain Imin, Imax, IC50), and the Hill coefficient n.
# [3] = read-out: TRPML1 IC50, Fluo-4, 5 µM ML-SA1, Fig. 2a/4, Table S1
# [4] = TRPML2 IC50, Fluo-4, 5 µM ML-SA1, Table S1
# [5] = Fluo-4, 5 µM ML-SA1, Table S1, read-out: TRPML3 IC50
Compound,pIC50 (hTRPML1∆NC-YFP [1]; [3]),TRPML isoform selectivity profile (hTRPML1∆NC-YFP [2]),TRPML1:TRPML2 fold selectivity (hTRPML1∆NC-YFP [2]),TRPML1:TRPML3 fold selectivity (hTRPML1∆NC-YFP [2]),pIC50 (hTRPML2-YFP; [4]),pIC50 (hTRPML3-YFP; [5]),"inhibitory effect on TRPML1 (hTRPML1∆NC-YFP [1]; 12.5 µM compound, 5 µM ML-SA1, Fig. 1f)","pIC50 (hTRPML1∆NC-YFP [1]; read-out: TRPML1 IC50, concentration-response retest of screening hits and steroids, Fluo-4, 5 µM ML-SA1, Fig. 1b-e, S1)","primary screen result (hTRPML1∆NC-YFP [2]; 20 µM compound, 5 µM ML-SA1, TRPML1 and TRPML3)","TRPML1 versus TRPML3 selectivity (hTRPML1∆NC-YFP [2]; Fluo-4, TRPML1 vs TRPML3, 5 µM ML-SA1)","pIC50 (hTRPML2-YFP; Fluo-4, 5 µM ML-SA1, Table S1, read-out: TRPML2 IC50)",pIC50 (hTRPML3-YFP)
C=Cc1ccc2c(c1)CC[C@@H]1[C@@H]2CC[C@]2(C)[C@@H](O)CC[C@@H]12 [PRU-10],6.39,further improved selectivity profile compared to EDME; also recorded: good TRPML isoform selectivity profile,13.17 fold,38.61 fold,5.27,4.80,,,,,,
CC(=O)c1ccc2c(c1)CC[C@@H]1[C@@H]2CC[C@]2(C)[C@@H](O)CC[C@@H]12 [PRU-12],6.55,further improved selectivity profile compared to EDME; also recorded: good TRPML isoform selectivity profile,18.86 fold,50.29 fold,5.28,4.85,,,,,,
"COc1ccc2c(c1)CC[C@@H]1[C@@H]2CC[C@]2(C)[C@@H](O)CC[C@@H]12 [EDME, 17β-estradiol methyl ether]",,,9.14 fold,30.47 fold,,,completely blocks TRPML1,6.30,TRPML1 selective hit,highly TRPML1-selective,5.23,4.71
